Data taken from publication PMC10253161, “New 5-Hydroxycoumarin-Based Tyrosyl-DNA Phosphodiesterase I Inhibitors Sensitize Tumor Cell Line to Topotecan” (International Journal of Molecular Sciences, 2023).
Where two headings read alike, the source gives them in different places.

Legend:
TDP1 [1] = biological target: T1, TDP1 (Homo sapiens, UniProt Q9NUW8); assay: Real-time fluorescence detection of TDP1 activity (FAM/BHQ1 oligonucleotide biosensor); assay type: biochemical
T1 construct: made in house
T1 sequence (Q9NUW8 whole entry): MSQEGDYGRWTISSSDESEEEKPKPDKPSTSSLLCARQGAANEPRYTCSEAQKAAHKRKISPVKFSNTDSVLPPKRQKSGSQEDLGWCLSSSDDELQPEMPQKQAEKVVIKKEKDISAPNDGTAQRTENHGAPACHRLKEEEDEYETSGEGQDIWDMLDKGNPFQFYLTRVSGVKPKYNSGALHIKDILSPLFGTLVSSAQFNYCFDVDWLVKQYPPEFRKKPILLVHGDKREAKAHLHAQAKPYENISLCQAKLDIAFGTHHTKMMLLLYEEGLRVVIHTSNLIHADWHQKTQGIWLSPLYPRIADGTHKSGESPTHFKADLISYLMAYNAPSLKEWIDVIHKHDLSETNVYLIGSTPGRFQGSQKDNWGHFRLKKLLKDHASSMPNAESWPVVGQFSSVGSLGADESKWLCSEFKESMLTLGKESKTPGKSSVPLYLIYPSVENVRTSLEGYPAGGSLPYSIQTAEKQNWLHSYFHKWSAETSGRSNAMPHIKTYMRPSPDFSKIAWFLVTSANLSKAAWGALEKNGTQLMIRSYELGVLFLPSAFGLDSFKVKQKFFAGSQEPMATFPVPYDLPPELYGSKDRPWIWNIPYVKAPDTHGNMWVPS
Excerpt: To determine the inhibitory properties of the new compounds against TDP1 we used a previously designed real-time oligonucleotide biosensor with 5(6)-carboxyfluorescein (FAM) at the 5′ end and fluorophore quencher BHQ1 (Black Hole Quencher-1) at the 3′-end.
The biosensor, 16-mer DNA oligonucleotide (5′-[FAM] AAC GTC AGGGTC TTC C [BHQ]-3′) was synthesized in the Laboratory of Nucleic Acid Chemistry at the Institute of Chemical Biology and Fundamental Medicine (Novosibirsk, Russia). Real-time fluorescence detection of TDP1 enzyme activity was carried out as described. The recombinant TDP1 was purified as described, using plasmid pET 16B-TDP1, kindly provided by Dr. K.W. Caldecott (University of Sussex, Brighton, UK). To the reaction mixture (200 μL) containing 50 nM oligonucleotide in buffer (50 mM Tris-HCl, pH 8.0, 50 mM NaCl, and 7 mM β-mercaptoethanol), varied concentrations of the tested compounds and purified TDP1 in a final concentration of 1.5 nM were added.
Fluorescence intensity was measured (Ex485/Em520 nm) using POLARstar OPTIMA fluorimeter (BMG LABTECH, GmbH, Ortenberg, Germany) every 1 min for 7 min. The half maximal inhibitory concentrations (IC50) were determined using a six-point concentration response curve and calculated using MARS Data Analysis 2.0 (BMG LABTECH). At least three independent experiments were carried out to obtain the IC50 values.

[2] = Cytotoxicity of compounds, MTT test, HEK293A; assay type: cell-based; conditions: human, HEK293A cells, compound alone, read-out: CC50 HEK 293A
Experimental: (§1) The cytotoxicity of the compounds to HeLa (human cervical cancer) and HEK293A (human embryonic kidney) cell lines was determined using standard colorimetric MTT-test. Cells were seeded in 96-well plates (5000 cells per well) and cultured in DMEM medium (Invitrogen, Carlsbad, CA, USA) supplemented with 10% fetal bovine serum (FBS) (Invitrogen), penicillin (100 units/mL), and streptomycin (100 μg/mL) at 37 °C and 5% CO2 in a humid atmosphere. Control wells contained 1% DMSO. At 30–50% confluence, the tested compounds were added to the medium. To determine the cytotoxicity of Tdp1 inhibitors, the cells were allowed to attach for 24 h and were treated with compounds with concentrations ranging from 1 to 100 μM for 72 h at 37 °C. All measurements were repeated three times.

[3] = Cytotoxicity of compounds, MTT test, HeLa; assay type: cell-based; conditions: human, HeLa cells, compound alone
Experimental: as §1

TDP1 [4] = biological target: T1, TDP1; design: method as in PMID 27658793, PMID 31878088; conditions: previously found 7-hydroxycoumarin derivatives; cited from earlier work
HEK293A cells = assay: Effect of compounds on topotecan cytotoxicity, MTT test, HEK293A; assay type: cell-based, human; conditions: 10 µM compound, result in words
Experimental: as §1
To study the effect of the compounds on the cytotoxicity of topotecan, an aqueous solution of topotecan was used at concentrations from 0.2 to 2 μM for HeLa cells and from 0.05 to 0.5 μM for HEK293A cells against the background of 10 μM of the compounds. Cells treated with compounds alone without topotecan were used as controls.

[5] = Table 1, recombinant TDP1 1.5 nM, 50 nM oligonucleotide, read-out: TDP1 inhibitory activities (IC50)
[6] = Table 2, TDP1 IC50, partly rounded, read-out: IC50

Cc1c(-c2ccccc2[N+](=O)[O-])c(=O)oc2cccc(OCCC(C)CCCC(C)C)c12 (centres unmarked) [38b, 5-(3,7-Dimethyloctyloxy)-4-methyl-3-(2-nitrophenyl)-2H-chromen-2-one]
melting point: 61 °C | IC50 (TDP1 [1]; [5]): 2.18 ± 0.13 µM

CC(C)=CCC/C(C)=C/COc1cccc2oc(=O)c(-c3ccccc3Br)c(C)c12 [36a, (E)-3-(2-Bromophenyl)-5-(3,7-dimethylocta-2,6-dienyloxy)-4-methyl-2H-chromen-2-one]
CC50 at 72 h [2]: 59 ± 6 µM | IC50 (TDP1 [1]; [5]): 0.85 ± 0.15 µM | IC50 (TDP1 [1]; [6]): 0.9 ± 0.2 µM | CC50 at 72 h [3]: 49 ± 2 µM

CC(C)=CCC/C(C)=C/COc1cccc2oc(=O)c(-c3ccc(Br)cc3)c(C)c12 [34a, (E)-3-(4-Bromophenyl)-5-(3,7-dimethylocta-2,6-dienyloxy)-4-methyl-2H-chromen-2-one]
melting point: 93 °C | CC50 at 72 h [2]: 53 ± 1.2 µM | IC50 (TDP1 [1]; [5]): 1.06 ± 0.06 µM | IC50 (TDP1 [1]; [6]): 1.06 ± 0.06 µM | CC50 at 72 h [3]: 32 ± 3 µM

COc1ccccc1-c1c(C)c2c(OC/C=C(\C)CCC=C(C)C)cccc2oc1=O [37a, (E)-5-(3,7-Dimethylocta-2,6-dienyloxy)-3-(2-methoxyphenyl)-4-methyl-2H-chromen-2-one]
melting point: 99 °C | CC50 at 72 h [2]: 16 ± 0.7 µM | IC50 (TDP1 [1]; [5]): 1.22 ± 0.04 µM | IC50 (TDP1 [1]; [6]): 1.22 ± 0.04 µM | CC50 at 72 h [3]: 18 ± 10 µM

COc1ccc(-c2c(C)c3c(OCCC(C)CCCC(C)C)cccc3oc2=O)cc1 (centres unmarked) [35b, 5-(3,7-Dimethyloctyloxy)-3-(4-methoxyphenyl)-4-methyl-2H-chromen-2-one]
CC50 at 72 h [2]: > 100 µM | IC50 (TDP1 [1]; [5]): 0.37 ± 0.16 µM | IC50 (TDP1 [1]; [6]): 0.4 ± 0.2 µM | CC50 at 72 h [3]: 90.7 ± 0.5 µM

Cc1c(-c2ccc(F)cc2)c(=O)oc2cccc(OCCC3=CC[C@H]4C[C@@H]3C4(C)C)c12 [33d, 5-(2-((1R,5S)-6,6-Dimethylbicyclo[3.1.1]hept-2-en-2-yl)ethoxy)-3-(4-fluorophenyl)-4-methyl-2H-chromen-2-one]
melting point: 114 °C | IC50 (TDP1 [1]; [5]): 2.51 ± 0.14 µM

Cc1c(-c2ccc(Br)cc2)c(=O)oc2cccc(OCCC(C)CCCC(C)C)c12 (centres unmarked) [34b, 3-(4-Bromophenyl)-5-(3,7-dimethyloctyloxy)-4-methyl-2H-chromen-2-one]
melting point: 137 °C

CC1(C)C2CC=C(COc3ccc4c5c(c(=O)oc4c3)CCC5)C1C2 (centres unmarked) [compound 11]
IC50 (TDP1 [4]): 0.7 µM

Cc1c(-c2ccccc2[N+](=O)[O-])c(=O)oc2cccc(OCC3=CC[C@H]4C[C@@H]3C4(C)C)c12 [38c, 5-(((1R,5S)-6,6-Dimethylbicyclo[3.1.1]hept-2-en-2-yl)methoxy)-4-methyl-3-(2-nitrophenyl)-2H-chromen-2-one]
CC50 at 72 h [2]: 32 ± 13 µM | IC50 (TDP1 [1]; [5]): 3.83 ± 0.29 µM | IC50 (TDP1 [1]; [6]): 3.8 ± 0.3 µM | CC50 at 72 h [3]: 83 ± 3 µM

Cc1c(-c2ccc(Br)cc2)c(=O)oc2cccc(OCC3=CC[C@H]4C[C@@H]3C4(C)C)c12 [34c, 3-(4-Bromophenyl)-5-(((1R,5S)-6,6-dimethylbicyclo[3.1.1]hept-2-en-2-yl)methoxy)-4-methyl-2H-chromen-2-one]
melting point: 148 °C | Effect on the cytotoxic effect of topotecan, HEK293A (HEK293A cells): protect cells from the cytotoxic effects of topotecan | CC50 at 72 h [2]: > 100 µM | IC50 (TDP1 [1]; [5]): 0.9 ± 0.07 µM | IC50 (TDP1 [1]; [6]): 0.9 ± 0.07 µM | CC50 at 72 h [3]: > 100 µM

Cc1c(-c2ccccc2Br)c(=O)oc2cccc(OCCC(C)CCCC(C)C)c12 (centres unmarked) [36b, 3-(2-Bromophenyl)-5-(3,7-dimethyloctyloxy)-4-methyl-2H-chromen-2-one]
melting point: 73 °C | IC50 (TDP1 [1]; [5]): ≥ 50 µM

CC(C)=CCC/C(C)=C/COc1ccc2c(-c3ccc(F)cc3)cc(=O)oc2c1 [compound 12]
IC50 (TDP1 [4]): 0.6 µM

Cc1c(-c2ccc(F)cc2)c(=O)oc2cccc(OCC3=CC[C@H]4C[C@@H]3C4(C)C)c12 [33c, 5-(((1R,5S)-6,6-Dimethylbicyclo[3.1.1]hept-2-en-2-yl)methoxy)-3-(4-fluorophenyl)-4-methyl-2H-chromen-2-one]
melting point: 152 °C | CC50 at 72 h [2]: > 100 µM | IC50 (TDP1 [1]; [5]): 5.25 ± 0.04 µM | IC50 (TDP1 [1]; [6]): 5.25 ± 0.04 µM | CC50 at 72 h [3]: 89 ± 7 µM

COc1ccc(-c2c(C)c3c(OCC4=CC[C@H]5C[C@@H]4C5(C)C)cccc3oc2=O)cc1 [35c, 5-(((1R,5S)-6,6-Dimethylbicyclo[3.1.1]hept-2-en-2-yl)methoxy)-3-(4-methoxyphenyl)-4-methyl-2H-chromen-2-one]
CC50 at 72 h [2]: > 100 µM | IC50 (TDP1 [1]; [5]): 1.14 ± 0.15 µM | IC50 (TDP1 [1]; [6]): 1.1 ± 0.2 µM | CC50 at 72 h [3]: 73 ± 6 µM

COc1ccccc1-c1c(C)c2c(OCC3=CC[C@H]4C[C@@H]3C4(C)C)cccc2oc1=O [37c, 5-(((1R,5S)-6,6-Dimethylbicyclo[3.1.1]hept-2-en-2-yl)methoxy)-3-(2-methoxyphenyl)-4-methyl-2H-chromen-2-one]
melting point: 164 °C | Effect on the cytotoxic effect of topotecan, HEK293A (HEK293A cells): protect cells from the cytotoxic effects of topotecan | CC50 at 72 h [2]: 52.3 ± 0.9 µM | IC50 (TDP1 [1]; [5]): 0.79 ± 0.06 µM | IC50 (TDP1 [1]; [6]): 0.79 ± 0.06 µM | CC50 at 72 h [3]: 72 ± 2 µM

COc1ccccc1-c1c(C)c2c(OCCC(C)CCCC(C)C)cccc2oc1=O (centres unmarked) [37b, 5-(3,7-Dimethyloctyloxy)-3-(2-methoxyphenyl)-4-methyl-2H-chromen-2-one]
melting point: 114 °C | IC50 (TDP1 [1]; [5]): 2.6 ± 0.35 µM

COc1ccccc1-c1c(C)c2c(OCCC3=CC[C@H]4C[C@@H]3C4(C)C)cccc2oc1=O [37d, 5-(2-((1R,5S)-6,6-Dimethylbicyclo[3.1.1]hept-2-en-2-yl)ethoxy)-3-(2-methoxyphenyl)-4-methyl-2H-chromen-2-one]
melting point: 135 °C | CC50 at 72 h [2]: 87 ± 7 µM | IC50 (TDP1 [1]; [5]): 3.93 ± 0.77 µM | IC50 (TDP1 [1]; [6]): 3.9 ± 0.8 µM | CC50 at 72 h [3]: 48 ± 4 µM

CC(C)=CCC/C(C)=C/COc1cccc2oc(=O)c(-c3ccccc3[N+](=O)[O-])c(C)c12 [38a, (E)-5-(3,7-Dimethylocta-2,6-dienyloxy)-4-methyl-3-(2-nitrophenyl)-2H-chromen-2-one]
melting point: 73 °C | Effect on the cytotoxic effect of topotecan, HEK293A (HEK293A cells): protect cells from the cytotoxic effects of topotecan | CC50 at 72 h [2]: > 100 µM | IC50 (TDP1 [1]; [5]): 1.03 ± 0.08 µM | IC50 (TDP1 [1]; [6]): 1.03 ± 0.08 µM | CC50 at 72 h [3]: > 100 µM

COc1ccc(-c2c(C)c3c(OC/C=C(\C)CCC=C(C)C)cccc3oc2=O)cc1 [35a, (E)-5-(3,7-Dimethylocta-2,6-dienyloxy)-3-(4-methoxyphenyl)-4-methyl-2H-chromen-2-one]
melting point: 85 °C | CC50 at 72 h [2]: > 100 µM | IC50 (TDP1 [1]; [5]): 6.63 ± 1.12 µM | IC50 (TDP1 [1]; [6]): 7 ± 1 µM | CC50 at 72 h [3]: > 100 µM

Cc1c(-c2ccccc2Br)c(=O)oc2cccc(OCC3=CC[C@H]4C[C@@H]3C4(C)C)c12 [36c, 3-(2-Bromophenyl)-5-(((1R,5S)-6,6-dimethylbicyclo[3.1.1]hept-2-en-2-yl)methoxy)-4-methyl-2H-chromen-2-one]
melting point: 157 °C | CC50 at 72 h [2]: > 100 µM | IC50 (TDP1 [1]; [5]): 4.36 ± 1.14 µM | IC50 (TDP1 [1]; [6]): 4.36 ± 1.14 µM | CC50 at 72 h [3]: 73.5 ± 0.6 µM

Cc1c(-c2ccc(F)cc2)c(=O)oc2cccc(OCCC(C)CCCC(C)C)c12 (centres unmarked) [33b, 5-(3,7-Dimethyloctyloxy)-3-(4-fluorophenyl)-4-methyl-2H-chromen-2-one]
melting point: 114 °C | CC50 at 72 h [2]: 40 ± 10 µM | IC50 (TDP1 [1]; [5]): 0.29 ± 0.07 µM | IC50 (TDP1 [1]; [6]): 0.29 ± 0.07 µM | CC50 at 72 h [3]: > 100 µM
